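Briefly, cells in 96-well plates were exposed to five compound concentrations for 48 h, and endpoints were estimated by linear interpolation. Here, GI50 denotes the concentration required for 50% inhibition of growth.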 Active and inactive are the calls of the source. Rule as the data show it: active = GI50 up to about 1.1 µM and inactive = higher.
How the values were obtained:
Test in all cases: NCI-60 cell line screen, 48 h
[1] = tested on: A549
[2] = tested on: HCC 2998
[3] = tested on: HT-29
[4] = tested on: MOLT-4
[5] = tested on: Malme-3M
[6] = tested on: NCI-H522
[7] = tested on: OVCAR-4
[8] = tested on: OVCAR-5
[9] = tested on: RXF 393
[10] = tested on: SF-539
[11] = tested on: SK-MEL-2
[12] = tested on: SK-OV-3
[13] = tested on: SNB-19
[14] = tested on: SW-620
[15] = tested on: TK-10
[16] = tested on: UACC-257
[17] = tested on: UO-31

Measured: GI50

CC1=C(C(=O)Nc2ccccc2)C(c2ccc3c(c2)OCO3)C(C(=O)Nc2ccccc2)=C(C)N1
inactive: [1] 49.5 µM | [2] 44.6 µM | [3] 37.2 µM | [4] 19 µM | [5] 62.1 µM | [6] 17 µM | [7] 21.6 µM | [8] > 10 µM | [9] 11.1 µM | [10] 26.5 µM | [11] 28.8 µM | [12] 47.3 µM | [13] 25.7 µM | [14] 3.5 µM | [15] 59.7 µM | [16] 40.9 µM | [17] 29.5 µM

COc1ccc(Nc2nc3ccccc3nc2-c2cccs2)cc1
inactive: [1] 80.4 µM | [2] 75 µM | [4] > 100 µM | [5] > 100 µM | [6] 59.4 µM | [7] > 100 µM | [8] > 100 µM | [9] > 100 µM | [10] > 100 µM | [11] > 100 µM | [12] 40.5 µM | [13] > 100 µM | [14] > 100 µM | [15] > 100 µM | [16] > 100 µM | [17] > 100 µM

Cn1cc(C(=O)c2ccccc2)ccc1=O
inactive: [1] > 100 µM | [2] > 100 µM | [3] > 100 µM | [4] > 100 µM | [5] > 100 µM | [6] > 100 µM | [7] > 100 µM | [8] > 100 µM | [9] > 100 µM | [10] > 100 µM | [11] > 100 µM | [12] > 100 µM | [13] > 100 µM | [14] > 100 µM | [15] > 100 µM | [16] > 100 µM | [17] > 100 µM

Nc1c(/N=N/c2ccc(-c3ccc(/N=N/c4c(O)ccc5cc(S(=O)(=O)O)cc(S(=O)(=O)O)c45)cc3)cc2)c(S(=O)(=O)O)cc2cc(S(=O)(=O)O)c(/N=N/c3ccccc3)c(O)c12
inactive: [1] > 70.8 µM | [2] > 100 µM | [3] > 100 µM | [4] > 100 µM | [5] > 100 µM | [6] > 100 µM | [7] > 100 µM | [8] > 100 µM | [9] > 100 µM | [10] > 100 µM | [11] > 100 µM | [12] > 100 µM | [13] > 100 µM | [14] > 100 µM | [16] > 100 µM | [17] 6.84 µM

CCCCCCCCCC/C=C/C=O
inactive: [1] > 100 µM | [2] > 100 µM | [3] > 100 µM | [4] 70.3 µM | [5] > 100 µM | [6] > 100 µM | [8] > 100 µM | [9] > 100 µM | [10] > 100 µM | [11] > 100 µM | [12] > 100 µM | [13] > 100 µM | [14] > 100 µM | [15] > 100 µM | [16] > 100 µM | [17] > 100 µM

O=C(/C(=C/c1ccc(O)cc1)c1ccccc1)c1ccccc1
inactive: [1] 18 µM | [2] 17.4 µM | [3] 18.1 µM | [4] 15.4 µM | [5] 19 µM | [6] 15.2 µM | [7] 21.9 µM | [8] 17 µM | [10] 16.6 µM | [11] 11.6 µM | [12] 20.8 µM | [14] 18 µM | [15] 16.2 µM | [16] 18 µM | [17] 15.4 µM

C=CC[N+](CCO)(CCO)CCCCCCCCCCCCCCCCCC
inactive: [1] 11.3 µM | [2] 3.23 µM | [3] 3.08 µM | [4] 1.61 µM | [5] 14.8 µM | [6] 3.77 µM | [7] 3.88 µM | [8] 14 µM | [9] 2.19 µM | [10] 3.54 µM | [11] 14.5 µM | [12] 10.9 µM | [13] 8.91 µM | [14] 6.24 µM | [16] 6.38 µM | [17] 9.62 µM

CC1=C2[C@@H](c3ccccc3)C3C=CC2(C=C3C(F)(F)F)N(C(=O)NC2CCCCC2)C1=O (stereo not given in full)
inactive: [1] 67.5 µM | [2] 38.9 µM | [3] 72.9 µM | [4] 16.2 µM | [5] > 100 µM | [7] > 100 µM | [8] > 100 µM | [9] > 100 µM | [10] 52.4 µM | [12] > 100 µM | [13] > 100 µM | [14] > 100 µM | [15] > 100 µM | [16] 36.2 µM | [17] 51.5 µM

OCc1ccccc1C1CSCSC1
inactive: [1] > 100 µM | [3] > 100 µM | [4] > 100 µM | [5] > 100 µM | [6] > 100 µM | [7] > 100 µM | [9] > 100 µM | [10] > 100 µM | [11] > 100 µM | [12] > 100 µM | [14] > 100 µM | [15] > 100 µM | [16] > 100 µM | [17] > 100 µM

CCOC(=O)C1(Cc2ccc3ccccc3c2)CCCCC(=O)N1 (stereo not given)
inactive: [1] 39.1 µM | [2] 8.67 µM | [3] 30.8 µM | [4] 7.35 µM | [5] 11.9 µM | [7] 36.1 µM | [9] > 100 µM | [12] 76 µM | [13] 36.5 µM | [14] 27.5 µM | [15] 56.1 µM | [17] 23.9 µM

N#CCC(=O)N/N=C1/C(=O)N(c2ccc(Cl)cc2)C(=O)C(=O)C1c1nc2ccccc2s1 (stereo not given)
inactive: [1] > 100 µM | [2] > 100 µM | [3] > 100 µM | [5] > 100 µM | [6] 46.3 µM | [7] > 100 µM | [8] > 100 µM | [9] 25.8 µM | [11] 89.9 µM | [12] > 100 µM | [13] > 100 µM | [14] > 100 µM | [15] > 100 µM | [16] 65.6 µM | [17] 28.5 µM

COC[C@H](C)/N=C/N1CCc2ccccc2C1(Cc1ccccc1)Cc1ccccc1
inactive: [1] 30.4 µM | [3] 5.07 µM | [4] 10.4 µM | [5] 11.8 µM | [6] 12.7 µM | [7] 12.8 µM | [9] 15.2 µM | [10] 18.2 µM | [11] 10.6 µM | [12] 16.9 µM | [13] 17.3 µM | [14] 22.6 µM | [15] 17.8 µM | [16] 13.8 µM | [17] 12.9 µM

C1CCC(OCc2nnn3c2CCC3)OC1 (stereo not given)
inactive: [1] > 100 µM | [2] > 100 µM | [3] > 100 µM | [4] > 100 µM | [5] > 100 µM | [6] > 100 µM | [7] > 100 µM | [8] > 100 µM | [9] > 100 µM | [10] > 100 µM | [11] > 100 µM | [12] > 100 µM | [14] > 100 µM | [15] > 100 µM | [16] > 100 µM | [17] > 100 µM

Source: ChEMBL document CHEMBL1201862, “PubChem BioAssay data set” (2004)
